Experiments:
human CB1 receptors = biological target: T1, human CB1 receptors (Homo sapiens, UniProt P21554); assay: cAMP assay in HEK-293 cells, hCB1 agonist; assay type: cell-based; details: inhibition of forskolin-stimulated cAMP, HEK-293 cells; for EC50: read-out: hCB1 EC50 (cAMP ag)
T1 construct: (cDNA clone) CNR01L000
Method in brief: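 Stable hCB1 HEK-293 cells suspended in HBSS with 10 mM HEPES and 0.1% fatty acid-free BSA, incubated 30 min at 37° C. with compound plus forskolin (90 uM in the 3× compound solution). Lysed cAMP measured by enzyme-fragment kit; EC50 = 50% inhibition of forskolin-stimulated cAMP (forskolin maximum = 100%), sigmoidal fit.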

[1] = biological target: T2, recombinant human cannabinoid receptor CB1 (Homo sapiens, UniProt P21554); assay: Cannabinoid receptor radioligand binding assay, [3H]-CP 55,940 displacement, hCB1
T2 construct: (cDNA clone) CNR01L000
Method in brief: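 Membranes from HEK-293 cells stably expressing human CB1, 2-10 μg protein, incubated 90 min at room temperature with 0.5 nM [3H]-CP 55,940 in Tris-HCl pH 7.5, MgCl2, EDTA and 0.1% fatty-acid-free BSA. Bound radioactivity counted after rapid filtration; nonspecific binding defined with 1 μM unlabeled CP 55,940.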

[2] = biological target: T3, recombinant human cannabinoid receptor CB2 (Homo sapiens, UniProt P34972); assay: Cannabinoid receptor radioligand binding assay, [3H]-CP 55,940 displacement, hCB2
T3 construct: (cDNA clone) CNR0200000
Method in brief: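 Membranes from hCB2-transfected cells, prepared by 1000×g then 40,000×g centrifugation, resuspended in 20 mM HEPES pH 7.4, 5 mM MgCl2, 1 mM EDTA, 10% sucrose.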

T2 sequence (P21554 whole entry): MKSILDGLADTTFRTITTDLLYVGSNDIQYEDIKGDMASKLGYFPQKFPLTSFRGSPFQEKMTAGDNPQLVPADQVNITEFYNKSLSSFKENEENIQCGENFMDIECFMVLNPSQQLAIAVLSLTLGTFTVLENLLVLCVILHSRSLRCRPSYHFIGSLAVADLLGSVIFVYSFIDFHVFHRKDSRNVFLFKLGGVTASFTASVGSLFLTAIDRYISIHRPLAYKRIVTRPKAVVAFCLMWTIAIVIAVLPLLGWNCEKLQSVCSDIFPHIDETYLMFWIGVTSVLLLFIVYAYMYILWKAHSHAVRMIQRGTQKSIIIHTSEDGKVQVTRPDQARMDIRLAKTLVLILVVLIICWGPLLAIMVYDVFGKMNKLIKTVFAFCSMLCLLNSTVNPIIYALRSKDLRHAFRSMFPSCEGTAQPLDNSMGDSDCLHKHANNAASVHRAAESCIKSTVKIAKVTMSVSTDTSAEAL
T1 sequence (P21554 whole entry): as above
T3 sequence (P34972 whole entry): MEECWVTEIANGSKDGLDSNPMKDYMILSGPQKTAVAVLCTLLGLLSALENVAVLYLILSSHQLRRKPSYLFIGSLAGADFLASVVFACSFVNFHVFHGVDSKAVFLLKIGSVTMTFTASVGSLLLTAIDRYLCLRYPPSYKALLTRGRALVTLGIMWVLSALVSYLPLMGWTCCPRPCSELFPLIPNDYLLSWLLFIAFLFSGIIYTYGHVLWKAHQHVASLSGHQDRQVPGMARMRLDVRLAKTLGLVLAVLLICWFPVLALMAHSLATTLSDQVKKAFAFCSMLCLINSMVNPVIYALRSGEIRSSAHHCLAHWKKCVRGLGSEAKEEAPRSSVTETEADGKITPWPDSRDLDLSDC

Row | SMILES | hCB1 EC50 (cAMP ag, nM) (human CB1 receptors) | IC50 [1] [nM] | IC50 [2] [nM] | EC50 (human CB1 receptors) [nM]
1 | COc1ccc(C(=O)c2cc3cc(C)n(CCN4CCCCC4)c3s2)cn1 [Compound 117, (6-Methoxypyridin-3-yl)(5-methyl-6-(2-(piperidin-1-yl)ethyl)-6H-thieno[2,3-b]pyrrol-2-yl)methanone] | NS (NS means “Not Significant,” which means less than 30% agonist activity when compared to the positive control.) | 1000 to 10000 | 100 to 1000 | –
2 | CCc1ccc(C(=O)c2cc3cc(C)n(CCN4CCOCC4)c3s2)cc1 [Compound 122, (4-Ethylphenyl)(5-methyl-6-(2-morpholinoethyl)-6H-thieno[2,3-b]pyrrol-2-yl)methanone] | – | 1000 to 10000 | < 100 | 1000 to 10000
3 | Cc1cc2cc(C(=O)c3cccc(Cl)n3)sc2n1CCN1CCOCC1 [Compound 123, (6-Chloropyridin-2-yl)(5-methyl-6-(2-morpholinoethyl)-6H-thieno[2,3-b]pyrrol-2-yl)methanone] | NS (NS means “Not Significant,” which means less than 30% agonist activity when compared to the positive control.) | 1000 to 10000 | 100 to 1000 | –
4 | Cc1ccc(C(=O)c2cc3cc(C)n(CCN4CCOCC4)c3s2)cc1 [Compound 124, (5-Methyl-6-(2-morpholinoethyl)-6H-thieno[2,3-b]pyrrol-2-yl)(p-tolyl)methanone] | – | 1000 to 10000 | 100 to 1000 | 1000 to 10000
5 | Cc1ccc(C(O)c2cc3cc(C)n(CCN4CCOCC4)c3s2)cn1 (stereo not drawn) [Compound 125, (5-Methyl-6-(2-morpholinoethyl)-6H-thieno[2,3-b]pyrrol-2-yl)(6-methylpyridin-3-yl)methanol] | NS (NS means “Not Significant,” which means less than 30% agonist activity when compared to the positive control.) | > 10000 | > 10000 | –
6 | COc1cc(F)c(C(=O)c2cc3cc(C)n(CCN4CCOCC4)c3s2)c(F)c1 [Compound 127, (2,6-difluoro-4-methoxyphenyl)(5-methyl-6-(2-morpholinoethyl)-6H-thieno[2,3-b]pyrrol-2-yl)methanone] | – | 1000 to 10000 | < 100 | 1000 to 10000
7 | Cc1ccc(C(=O)c2cc3cc(C)n(CCN4CCOCC4)c3s2)cn1 [Compound 130, (5-methyl-6-(2-morpholinoethyl)-6H-thieno[2,3-b]pyrrol-2-yl)(6-methylpyridin-3-yl)methanone] | NS (NS means “Not Significant,” which means less than 30% agonist activity when compared to the positive control.) | > 10000 | 1000 to 10000 | –
8 | COc1ccc(C(=O)c2cc3cc(C)n(CCN4CCOCC4)c3s2)nc1 [Compound 131, (5-methoxypyridin-2-yl)(5-methyl-6-(2-morpholinoethyl)-6H-thieno[2,3-b]pyrrol-2-yl)methanone] | NS (NS means “Not Significant,” which means less than 30% agonist activity when compared to the positive control.) | 1000 to 10000 | 100 to 1000 | –
9 | Cc1cc2cc(C(=O)c3ccc(N(C)C(=O)OC(C)(C)C)cc3)sc2n1CCN1CCOCC1 [Compound 132, tert-butylmethyl(4-(5-methyl-6-(2-morpholinoethyl)-6H-thieno[2,3-b]pyrrole-2-carbonyl)phenyl)carbamate] | NS (NS means “Not Significant,” which means less than 30% agonist activity when compared to the positive control.) | 1000 to 10000 | 1000 to 10000 | –
10 | CNc1ccc(C(=O)c2cc3cc(C)n(CCN4CCOCC4)c3s2)cc1 [Compound 134, (5-methyl-6-(2-morpholinoethyl)-6H-thieno[2,3-b]pyrrol-2-yl)(4-(methylamino)phenyl)methanone] | NS (NS means “Not Significant,” which means less than 30% agonist activity when compared to the positive control.) | 1000 to 10000 | 100 to 1000 | –
11 | COc1ccc(C(=O)c2cc3cc(C)n(CCN4CCOCC4)c3s2)c(Cl)n1 [Compound 137, (2-chloro-6-methoxypyridinyl-3-yl)(5-methyl-6-(2-morpholinoethyl)-6H-thieno[2,3-b]pyrrol-2-yl)methanone] | – | 1000 to 10000 | < 100 | 100 to 1000
12 | COc1ccc(C(=O)c2cc3c(Cl)c(C)n(CCN4CCOCC4)c3s2)cc1 [Compound 140, (4-chloro-5-methyl-6-(2-morpholinoethyl)-6H-thieno[2,3-b]pyrrol-2-yl)(4-methoxyphenyl)methanone] | NS (NS means “Not Significant,” which means less than 30% agonist activity when compared to the positive control.) | 1000 to 10000 | 100 to 1000 | –
13 | CCN(CC)CCn1c(C)cc2cc(C(=O)c3ccc(OC)nc3)sc21 [Compound 142, (6-(2-(diethylamino)ethyl)-5-methyl-6H-thieno[2,3-b]pyrrol-2-yl)(6-methoxypyridin-3-yl)methanone] | NS (NS means “Not Significant,” which means less than 30% agonist activity when compared to the positive control.) | > 10000 | 1000 to 10000 | –
14 | COc1ccc(C(=O)c2cc3cc(C)n(CC4CCOCC4)c3s2)cn1 [Compound 144, (6-methoxypyridin-3-yl)(5-methyl-6-((tetrahydro-2H-pyran-4-yl)methyl)-6H-thieno[2,3-b]pyrrol-2-yl)methanone] | NS (NS means “Not Significant,” which means less than 30% agonist activity when compared to the positive control.) | 1000 to 10000 | 100 to 1000 | –
15 | COc1ccc(C(=O)c2cc3cc(C)n(CC4CCOCC4)c3s2)c(F)c1 [Compound 145, (2-fluoro-4-methoxyphenyl)(5-methyl-6-((tetrahydro-2H-pyran-4-yl)methyl)-6H-thieno[2,3-b]pyrrol-2-yl)methanone] | – | 1000 to 10000 | < 100 | 1000 to 10000
16 | CCOc1ccc(C(=O)c2cc3cc(C)n(CCN4CCOCC4)c3s2)cn1 [Compound 150, (6-Ethoxypyridin-3-yl)(5-methyl-6-(2-morpholinoethyl)-6H-thieno[2,3-b]pyrrol-2-yl)methanone] | NS (NS means “Not Significant,” which means less than 30% agonist activity when compared to the positive control.) | > 10000 | 1000 to 10000 | –
17 | COc1ccc(C(=O)c2cc3cc(C)n(CC4CCC(F)(F)CC4)c3s2)cn1 [Compound 170, (6-((4,4-difluorocyclohexyl)methyl)-5-methyl-6H-thieno[2,3-b]pyrrol-2-yl)(6-methoxypyridin-3-yl)methanone] | – | < 100 | 100 to 1000 | < 100

Reference: patent US20130029970A1 (priority 2009, published 2013)
